Experimental data: US20090068290A1, “BIFEPRUNOX DOSES FOR TREATING SCHIZOPHRENIA” (priority 2006, published 2009)

What was measured:
Type in all cases: in vivo, human
[1] = test system: adult subjects with schizophrenia; experiment: BPRS total score, Clinical Study One; settings: Risperidone 6 mg, ITT population
Description: There were five treatment groups in this study. […] Study medication was administered once daily. After Baseline measurements were performed, the titration phase was begun. Bifeprunox treated subjects were titrated up to 5 mg, 10 mg or 20 mg according to a standardized titration schedule (Day 1: 0.125 mg, Day 2: 0.25 mg, Day 3: 0.5 mg, Day 4: 1.0 mg, Day 5: 2.0 mg, Day 6: 5.0 mg, Day 7: 10.0 mg, Day 8: 20 mg). When the assigned dose was reached, subjects were maintained at that dose for the remainder of the six-week treatment period.
The change in the Positive and Negative Symptom Scale (PANSS) total score, from baseline to endpoint, was the primary outcome measure. Secondary efficacy measures included: PANSS positive, PANSS negative, PANSS general psychopathology (GPP) score, PANSS-derived Brief Psychiatric Rating Scale (BPRS) score, Clinical Global Impressions-Severity of Illness (CGI-S), CGI-Improvement (CGI-I) scores, and responder rates. Safety and tolerability evaluations included extrapyramidal symptoms (EPS), weight gain, lipid profile, and serum prolactin.

[2] = test system: adult subjects with schizophrenia; experiment: Adverse events (TEAE, SAE, discontinuation, EPS-related TEAE, anticholinergic use), Clinical Study One
Description: METHODOLOGY: This was a randomized, double-blind, fixed-dose, placebo-controlled, risperidone-referenced, parallel group, multi-center study in adult subjects with schizophrenia. There were five treatment groups in this study. […] Study medication was administered once daily. After Baseline measurements were performed, the titration phase was begun. Bifeprunox treated subjects were titrated up to 5 mg, 10 mg or 20 mg according to a standardized titration schedule (Day 1: 0.125 mg, Day 2: 0.25 mg, Day 3: 0.5 mg, Day 4: 1.0 mg, Day 5: 2.0 mg, Day 6: 5.0 mg, Day 7: 10.0 mg, Day 8: 20 mg).

[3] = test system: adult subjects with schizophrenia; experiment: SAS, BAS and AIMS movement scales, Clinical Study Two; settings: Risperidone 6 mg
Description: Pharmacokinetic (PK) data of bifeprunox in schizophrenic subjects were also assessed and are presented in a separate report (combined with data from study S1543003).
The SAS is used to measure Parkinsonian-type symptoms in patients exposed to antipsychotics. The scale consists of 10 items, each rated on a 5-point scale ranging from 0 (complete absence of the condition) to 4 (presence of the condition in extreme form). The SAS total score is defined as the sum of all item scores, and the range is 0 to 40. A SAS total score of up to 3 is considered normal.
The BAS is used to rate observable, restless movements of drug-induced akathisia as well as the subjective awareness of restlessness and any distress associated with the akathisia. The scale consists of 3 items that is rated from 0 (no evidence of akathisia) to 3 (severe akathisia). The BAS total score is defined as the sum of the these three BAS item scores and ranges from is 0 to 9. In addition, a global clinical assessment of akathisia is rated from 0 (no evidence of akathisia) to 5 (severe akathisia).
The AIMS, designed to record the occurrence of dyskinetic movements, consists of 12 items. Items 1 to 7 measure specific involuntary movements on a scale from 0 (none) to 4 (severe). Items 8 to 10 measure global assessment of abnormal movement on a scale from 0 (no awareness) to 4 (aware, severe distress). Items 11 and 12 are questions regarding the dental condition of the patient, with yes/no answers. The total score is calculated by summing AIMS items 1 through 10 and ranges from 0 to 40; the non-global total score is calculated by summing items 1 through 7.

## Cc1nc2n(c(=O)c1CCN1CCC(c3noc4cc(F)ccc34)CC1)CCCC2 [Risperidone, risperidone, reference compound]
[1]; Endpoint LOCF
  Change from Baseline in BPRS Total Score, Mean (S.D.): −9.2 (8.9)
  Change from Baseline in BPRS Total Score, Median: −9
[1]; Week 1, LOCF
  Change from Baseline in BPRS Total Score, Mean (S.D.): −4.6 (6.5)
  Change from Baseline in BPRS Total Score, Median: −3
[1]; Week 2, LOCF
  Change from Baseline in BPRS Total Score, Mean (S.D.): −7.6 (8.4)
  Change from Baseline in BPRS Total Score, Median: −7
[1]; Week 3, LOCF
  Change from Baseline in BPRS Total Score, Mean (S.D.): −9.1 (8.4)
  Change from Baseline in BPRS Total Score, Median: −9
[1]; Week 4, LOCF
  Change from Baseline in BPRS Total Score, Mean (S.D.): −8.6 (9.0)
  Change from Baseline in BPRS Total Score, Median: −7
[2]; 6 mg, Safety Population
  TEAE Akathisia, %: (5%)
  TEAE Muscle Spasms, %: (2%)
  TEAE Musculoskeletal Stiffness, %: (<1%)
  TEAE Myalgia, %: (2%)
  TEAE NERVOUS SYSTEM DISORDERS, %: (49%)
  TEAE Neck Pain, %: (2%)
  TEAE Neck Stiffness, %: (<1%)
  TEAE Pain in Jaw, %: (<1%)
  TEAE Pain in Limb, %: (2%)
[2]; Risperidone 6 mg
  Affect Lability, %: (<1%)
  Agitation, %: (8%)
  Alcoholic Hangover, %: (<1%)
  Anxiety Aggravated, %: (3%)
  Anxiety, %: (6%)
  DIZZINESS, %: (5%)
  DYSARTHRIA, %: (2%)
  Disturbance in Attention, %: (<1%)
  Drooling, %: (2%)
  Dystonia, %: (4%)
  EXTRAPYRAMIDAL DISORDER, %: (3%)
  Gait Feastinating, %: (<1%)
  Headache Nos, %: (28%)
  Hypoaesthesia, %: (<1%)
  Migraine Aggravated, %: (<1%)
  Oculogyric Crisis, %: (<1%)
  PARAESTHESIA, %: (<1%)
  PSYCHIATRIC DISORDERS, %: (39%)
  SEDATION, %: (13%)
  SOMNOLENCE, %: (22%)
  TREMOR, %: (<1%)
  incidence of aggravated schizophrenia NOS (SAE): 4%
  subjects with at least one AE that led to discontinuation: 14%
  subjects with at least one SAE: 16%
  subjects with at least one TEAE: 89%
  suicide attempt: no subjects
[3]
  subjects with abnormal SAS scores at Endpoint: 14%
